How the values were obtained:
Assay in all cases: relative viability (nuclei count vs DMSO), 5 days (fraction); higher = more cells survive
[1] = compound: C1CC1C(=O)NC2=NNC3=C2C=CC(=C3)C4=CC(=CC=C4)C(=O)NC5CC5 [XMD13-2] + CC(=O)Nc1cccc(-n2c(=O)n(C3CC3)c(=O)c3c(Nc4ccc(I)cc4F)n(C)c(=O)c(C)c32)c1 [Trametinib] (partner 0.02 µM)
Method in brief: (§1)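 Five library-drug doses in √10 steps were combined with a fixed anchor-drug dose, or a single drug was given alone, by pin tool to lung cancer cell lines in 1536-well plates the day after seeding. Nuclei were stained and counted after 5 days. Relative viability is the nuclei count in treated wells over that in vehicle wells, taken as the median of duplicate plates.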

[2] = compound: C1CC1C(=O)NC2=NNC3=C2C=CC(=C3)C4=CC(=CC=C4)C(=O)NC5CC5 [XMD13-2] + Nc1nc2[nH]cc(CCc3ccc(C(=O)N[C@@H](CCC(=O)O)C(=O)O)cc3)c2c(=O)[nH]1 [Pemetrexed] (partner 0.2 µM)
Method in brief: as §1

[3] = compound: C1CC1C(=O)NC2=NNC3=C2C=CC(=C3)C4=CC(=CC=C4)C(=O)NC5CC5 [XMD13-2] + N=C(N)NC(=N)NCCc1ccccc1 [Phenformin] (partner 250 µM)
Method in brief: as §1

[4] = compound: C1CC1C(=O)NC2=NNC3=C2C=CC(=C3)C4=CC(=CC=C4)C(=O)NC5CC5 [XMD13-2] + CC(=O)c1c(C)c2cnc(Nc3ccc(N4CCNCC4)cn3)nc2n(C2CCCC2)c1=O [Palbociclib] (partner 0.5 µM)
Method in brief: as §1

Cell Line | relative viability ([1]; first compound 0.05 µM) | relative viability ([1]; first compound 0.1581 µM) | relative viability ([1]; first compound 0.5 µM) | relative viability ([1]; first compound 1.581 µM) | relative viability ([1]; first compound 5 µM) | relative viability ([2]; first compound 0.05 µM) | relative viability ([2]; first compound 0.1581 µM) | relative viability ([2]; first compound 0.5 µM) | relative viability ([2]; first compound 1.581 µM) | relative viability ([2]; first compound 5 µM) | relative viability ([3]; first compound 0.05 µM) | relative viability ([3]; first compound 0.1581 µM) | relative viability ([3]; first compound 0.5 µM) | relative viability ([3]; first compound 1.581 µM) | relative viability ([3]; first compound 5 µM) | relative viability ([4]; first compound 0.05 µM) | relative viability ([4]; first compound 0.1581 µM) | relative viability ([4]; first compound 0.5 µM) | relative viability ([4]; first compound 1.581 µM) | relative viability ([4]; first compound 5 µM)
NCI-H23 | 0.358 | 0.432 | 0.438 | 0.371 | 0.353 | 0.829 | 0.569 | 0.747 | 0.656 | 0.799 | 1 | 0.796 | 0.802 | 0.725 | 0.916 | 0.572 | 0.514 | 0.502 | 0.58 | 0.658
NCI-H1355 | 0.544 | 0.428 | 0.457 | 0.42 | 0.428 | 1.04 | 1.05 | 1.06 | 1.06 | 1.1 | 0.5 | 0.451 | 0.465 | 0.462 | 0.517 | 0.442 | 0.365 | 0.42 | 0.398 | 0.425
COR-L23 | 0.611 | 0.591 | 0.684 | 0.552 | 0.626 | 0.197 | 0.194 | 0.204 | 0.218 | 0.197 | 0.479 | 0.437 | 0.472 | 0.409 | 0.398 | 0.248 | 0.298 | 0.295 | 0.294 | 0.365
NCI-H2023 | 0.621 | 0.54 | 0.555 | 0.561 | 0.633 | 0.261 | 0.206 | 0.195 | 0.242 | 0.246 | 0.561 | 0.434 | 0.399 | 0.428 | 0.426 | 0.436 | 0.373 | 0.439 | 0.328 | 0.363
A-427 | 0.795 | 0.649 | 0.755 |  | 0.581 | 1.04 | 0.922 | 0.995 |  | 0.82 | 0.37 | 0.252 | 0.334 | 0.263 | 0.282 | 0.568 | 0.499 | 0.573 |  | 0.473
NCI-H1793 | 0.524 | 0.442 | 0.407 | 0.432 | 0.444 | 1.26 | 0.83 | 0.94 | 0.859 | 0.97 | 0.436 |  | 0.409 | 0.393 | 0.36 | 0.357 | 0.34 | 0.327 | 0.324 | 0.273
LU99A | 0.581 | 0.532 | 0.546 | 0.54 | 0.352 | 0.208 | 0.203 | 0.189 | 0.213 | 0.187 | 1.08 | 0.752 | 0.833 | 0.885 | 0.852 | 0.402 | 0.38 | 0.391 | 0.402 | 0.27
NCI-H2009 | 0.344 | 0.271 | 0.29 | 0.307 | 0.264 | 1.01 | 1.1 | 1.01 | 1.01 | 1.07 | 0.473 | 0.486 | 0.54 | 0.454 | 0.517 | 0.244 | 0.229 | 0.215 | 0.204 | 0.153

— the supplement of paper PMC10307832
